# Assay results reported in publication PMC4585840 (Scientific Reports, 2015).
# Assays:
# [1] = target: T1, RCasp3 (Homo sapiens, UniProt P42574); assay: in vitro tubulin cleavage assay with RCasp3; type: biochemical; conditions: 20 nM RCasp3, 10 μM DTT, 10 hours, western blot densitometry; read-out: IC50 on RCasp3-cleaved tubulin
# T1 construct: Active Casp6 and Casp3 represented >99% of the purified enzyme; purchased Enzo Lifesciences
# T1 sequence (P42574 29-175 limits assumed): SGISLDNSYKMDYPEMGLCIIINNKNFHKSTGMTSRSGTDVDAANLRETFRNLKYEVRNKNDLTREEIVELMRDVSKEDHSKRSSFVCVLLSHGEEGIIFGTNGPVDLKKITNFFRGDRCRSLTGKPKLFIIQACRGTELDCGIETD
# T1 sequence (P42574 176-277 limits assumed): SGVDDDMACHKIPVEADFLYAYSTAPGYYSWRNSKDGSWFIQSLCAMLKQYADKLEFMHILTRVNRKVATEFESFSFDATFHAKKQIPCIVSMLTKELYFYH
# [2] = tested on: HCT116 cells; assay: cell viability (microscopy and MTT) in HCT116 cells; type: cell-based, human; conditions: 2 hours
# Procedure: (§1) HCT116 cells, plated at a density of 1 × 10^5 cells/well and human neurons, plated at a density of 6 × 10^6 cells/well on poly-L-lysine were treated with PBS or phenothiazines for 2 hours. The media was replaced before acquiring images with the Nikon Eclipse Ti microscope and the NIS-Elements (Version 3.10) software. MTT assays: Cells were plated in 96-well plates at 1 × 10^4 or 1 × 10^5 cells per well for 24 hours before treatments with phenothiazines or PBS. After 2 hours, fresh media containing […] MTT (3-(4,5-dimethylthiazol-2-yl)-2,5-diphenyltetrazolium bromide) (Sigma-Aldrich) was added and the cells were incubated for 4 hours at 37 °C in 5% CO2. The media was removed, formazan crystals were dissolved in DMSO, and the absorbance was measured at 560 nm and 670 nm using the BioTek Synergy H4 plate reader.
# [3] = target: T2, RCasp6 (Homo sapiens, UniProt P55212); assay: inhibitor kinetic studies (Michaelis-Menten / Lineweaver-Burk) on RCasp6; type: biochemical; conditions: competitive inhibition model, nonlinear regression, Ac-VEID-AFC substrate, 10 nM RCasp6
# T2 construct: The zymogen is cleaved at three distinct sites to remove the prodomain and linker regions in order to obtain an active enzyme; His tag (C); made in house; host or cells: E. coli BL21 (DE3)pLysS
# T2 sequence (P55212 24-179 limits assumed): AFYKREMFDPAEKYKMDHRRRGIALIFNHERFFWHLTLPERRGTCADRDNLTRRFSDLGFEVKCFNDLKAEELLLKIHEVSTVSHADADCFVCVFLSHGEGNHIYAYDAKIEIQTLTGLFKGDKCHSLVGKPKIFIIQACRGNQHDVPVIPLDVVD
# T2 sequence (P55212 194-293 limits assumed): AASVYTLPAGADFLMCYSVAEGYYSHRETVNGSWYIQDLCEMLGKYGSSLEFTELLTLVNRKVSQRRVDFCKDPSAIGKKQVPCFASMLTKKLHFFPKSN
# [4] = target: T3, Casp6 (Homo sapiens, UniProt P55212); assay: Casp6 activity in Casp6p20p10-transfected HCT116 cells; type: cell-based; design: for active Casp6p20 subunit (p20), full length Casp6 lacking its pro-domain; Casp6p20p10 (p20p10); expressed in transfected cells; host or cells: HCT116 human colon carcinoma cells; conditions: transfected HCT116, 2 hrs; 100 μM and 1 mM methylene blue, 50 μM azure A, 10 μM and 100 μM azure B
# T3 sequence (P55212 24-179 limits assumed): T2 sequence (P55212 24-179 limits assumed)
# T3 sequence (P55212 194-293 limits assumed): T2 sequence (P55212 194-293 limits assumed)
# Procedure: (§2) Activity assays for RCasp1 (Biovision, Millpitas, CA, USA) and RCasp3 (Enzo Lifesciences) used Z-Tyr-Val-Ala-Asp-7-Amino-4-trifluoromethylcoumarin (z-YVAD-AFC: Enzo LifeSciences,), and Ac-Asp-Glu-Val-Asp-7-Amino-4-trifluoromethylcouramin (Ac-DEVD-AFC: Enzo LifeSciences), respectively. To confirm that these substrates report caspase activity and not proteasomal caspase-like enzyme activity, 1 μM pan-caspase inhibitor, Q-VD-OPh (Sigma-Aldrich) or 0.1 μM proteasome inhibitor, bortezomib (Calbiochem, MA, USA) were tested on 20 nM RCasp3 or 40–60 μg of mouse liver protein extracts.
# Human colon carcinoma (HCT116) cells, cultured as recommended (ATCC: Manassas, VA, USA), were transfected with 1 μg pCep4βCasp6p20p10 and 8 μg polyethyleneimine (Polysciences Inc., Warrington, PA, USA), and grown 24 hrs before treatment with PBS and phenothiazines for 2 hours. Human primary neurons were cultured from fetal brain cortical areas obtained under ethical guidelines and approved by the McGill University’s institutional review board as previously described. Human primary neurons plated in poly-L-lysine -coated 6-well plates at a density of 3 × 10^6 cells/mL were serum-deprived for 2 hours in the presence of phenothiazines or an equivalent volume of PBS. Proteins were harvested in cell lysis buffer (CLB; 50mM HEPES, 0.1% CHAPS, 0.1mM EDTA).
# (§3) The 10630 (1:10,000) and GN60622 (1:10,000) neoepitope antibodies against the p20 subunit of active Casp6[16] and Tub∆Casp6[23], respectively, were generated in our laboratory. The β-actin clone AC-15 (1:5000, Sigma-Aldrich), Casp6 p10 clone B93-4 (1:250, BD Canada, Mississauga, ON, CA), Casp3, and full-length α-tubulin (1:1000, Cell Signaling Technology Inc., Danvers, MA, USA) antibodies were diluted in 5% non-fat dry milk in Tris-buffered saline containing 0.1% Tween-20 (Sigma-Aldrich). […] Secondary anti-mouse conjugated to alkaline phosphatase (Jackson Immunoresearch Laboratories Inc., West Grove, PA) was developed with nitro-blue tetrazolium (ThermoSci) and 5-bromo-4-chloro-3′-indolyphosphate (ThermoSci).
# [5] = target: T2, RCasp6; assay: in vitro fluorogenic Casp6 activity assay (Ac-VEID-AFC); type: biochemical; conditions: 10 μM DTT; Fig. 1c
# [6] = target: T2, RCasp6; assay: in vitro tubulin cleavage assay with RCasp6; type: biochemical; conditions: 20 nM RCasp6, 10 μM DTT, 10 hours, western blot densitometry; read-out: IC50, cleavage of tubulin by RCasp6 (Tub∆Casp6 relative to total tubulin)
# Procedure: Phenothiazines were mixed with 20 nM RCasp6 or RCasp3, 10 μM DTT, and 7.5 nM BSA in SB and 36 μg HCT116 protein extracts added before incubation at 37 °C for 10 hours, western blotting, and densitometry for tubulin-cleaved by Casp6 (Tub∆Casp6) and total tubulin as described in the western blot section. The IC50 was determined by a non-linear regression fit for log inhibitor vs caspase activity with a Hill slope of −1 using GraphPad Prism 5.0.
# as §3
# [7] = tested on: human primary neurons; assay: cell viability (microscopy) in human primary neurons; type: cell-based; conditions: phase contrast microscopy, 2 hours
# Procedure: as §1
# [8] = target: T4, RCasp1 (Homo sapiens, UniProt P29466); assay: in vitro fluorogenic Casp1 activity assay (z-YVAD-AFC); type: biochemical; conditions: Fig. 1g
# T4 construct: purchased Biovision
# T4 sequence (P29466 120-404): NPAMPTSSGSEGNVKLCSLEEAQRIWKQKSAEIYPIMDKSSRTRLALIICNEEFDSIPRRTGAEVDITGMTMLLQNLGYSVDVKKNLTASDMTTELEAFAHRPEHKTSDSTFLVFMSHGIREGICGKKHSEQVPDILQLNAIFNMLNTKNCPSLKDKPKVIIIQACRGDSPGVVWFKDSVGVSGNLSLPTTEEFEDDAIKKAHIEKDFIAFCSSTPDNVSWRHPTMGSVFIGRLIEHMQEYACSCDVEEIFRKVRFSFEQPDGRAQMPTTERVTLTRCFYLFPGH
# Procedure: as §2
structure (smiles),measurement,setting,value
"CN(C)c1ccc2nc3ccc(=[N+](C)C)cc-3sc2c1 [methylene blue, [7-(dimethylamino)phenothiazin-3-ylidene]-dimethylazanium;chloride]",IC50,[1],14.2 µM
same,concentration that decreased MTT absorbance to almost nothing (toxicity),"[2]; HCT116, MTT assay",10000 µM
same,concentration up to which MTT absorbance was similar to PBS-treated cells,"[2]; HCT116, MTT assay",up to 1 mM
same,concentration at which cells retained morphology and confluence comparable to PBS-treated controls,"[2]; HCT116, phase contrast microscopy",100 μM
same,Ki,[3],50.5 µM
same,Casp6 activity on the Ac-VEID-AFC peptide substrate,[4],significantly inhibited
same,concentration at which reduction in Casp6 activity was observed,[5],100 pM
same,IC50,[6],10.6 µM
same,concentration above which cell body size and axonal fragmentation increased,[7],above 100 μM
same,inhibition of RCasp1 in the fluorogenic assay,[8],dose dependent inhibition
